Reference: patent publication US9957268B2, “1H-pyrrolo[2,3,c]pyridin-7(6H)-ones and pyrazolo[3,4-c]pyridin-7(6H)-ones as inhibitors of BET proteins” (Incyte Corporation, priority 2014, dated 2018)

What was measured:
BRD4-BD1 = BRD4-BD1 (Homo sapiens (Human), UniProt O60885); assay: BRD4 AlphaScreen assay (BRD4-BD1); format: binding; settings: biotin-labeled tetra-acetylated histone H4 peptide
Procedure, shortened: (§1)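 AlphaScreen displacement at room temperature: 75 min with biotin-H4Ac4 peptide (50 nM) and sub-nanomolar BRD4-BD1 or BD2, then 75 min dark incubation with donor/acceptor beads (2-4 μg/mL). Buffer Tris-HCl pH 7.5 with Tween-20, BSA, DTT; DMSO 1.25% for BD1, 0.83% for BD2. IC50 by curve fitting.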

BRD4-BD2 = BRD4-BD2 (Homo sapiens (Human), UniProt O60885); assay: BRD4 AlphaScreen assay (BRD4-BD2); format: binding; settings: biotin-labeled tetra-acetylated histone H4 peptide
Procedure, shortened: as §1

KMS.12.BM cells = assay: KMS.12.BM cell viability assay (ATP quantitation, Cell Titer-GLO); format: cell-based; settings: human myeloma cell line, 3 days, concentration required for 50% cell death
Procedure: KMS. 12.BM cell line (human myeloma) was purchased from JCRB (Osaka, Japan) and maintained in RPMI with 10% FBS culture medium. To measure the cytotoxic activity of the compounds through ATP quantitation, the KMS. 12.BM cells are plated in the RPMI culture medium at 5000 cells/well/per 100 μL into a 96-well polystyrene clear black tissue culture plate (Greiner-bio-one through VWR, NJ), in the presence or absence of a concentration range of test compounds. After 3 days, […] Cell Titer-GLO Luminescent (Promega, Madison, Wis.) cell culture agent is added to each well for 10 minutes at room temperature to stabilize the luminescent signal. This determines the number of viable cells in culture based on quantitation of the ATP present, which signals the presence of metabolically active cells. Luminescence is measured with the Top Count 384 (Packard Bioscience through Perkin Elmer, Boston, Mass.). Compound inhibition is determined relative to cells cultured with no drug and the IC50 is reported as the compound concentration required for 50% cell death.

| IC50 (BRD4-BD1) [nM] | IC50 (BRD4-BD2) [nM] | Compound | IC50 (KMS.12.BM cells) [nM] |
| --- | --- | --- | --- |
| 100 to 1000 | ≤ 100 | CC(C)C1Oc2c(cc([N+](=O)[O-])cc2-c2cn(C)c(=O)c3[nH]ccc23)NC1=O (stereo not shown) [Example 21, 2-isopropyl-8-(6-methyl-7-oxo-6,7-dihydro-1H-pyrrolo[2,3-c]pyridin-4-yl)-6-nitro-2H-1,4-benzoxazin-3(4H)-one] |  |
| ≤ 100 | ≤ 100 | CC(C)C1Oc2c(-c3cn(C)c(=O)c4[nH]ccc34)cc(S(C)(=O)=O)cc2N(C)C1=O (stereo not shown) [Example 47, 2-isopropyl-4-methyl-8-(6-methyl-7-oxo-6,7-dihydro-1H-pyrrolo[2,3-c]pyridin-4-yl)-6-(methylsulfonyl)-2H-1,4-benzoxazin-3(4H)-one] |  |
| ≤ 100 | ≤ 100 | CNC(=O)c1cc2c(c(-c3cn(C)c(=O)c4[nH]ccc34)c1)OC(C(C)C)C(=O)N2 (stereo not shown) [Example 20, 2-isopropyl-N-methyl-8-(6-methyl-7-oxo-6,7-dihydro-1H-pyrrolo[2,3-c]pyridin-4-yl)-3-oxo-3,4-dihydro-2H-1,4-benzoxazine-6-carboxamide] |  |

| Compound | IC50 (BRD4-BD1) [nM] | IC50 (BRD4-BD2) [nM] | IC50 (KMS.12.BM cells) [nM] |
| --- | --- | --- | --- |
| CC(C)C1Oc2c(cc(S(C)(=O)=O)cc2-c2cn(C)c(=O)c3[nH]ccc23)NC1=O (single isomer, unassigned) [Example 44B, 2-isopropyl-8-(6-methyl-7-oxo-6,7-dihydro-1H-pyrrolo[2,3-c]pyridin-4-yl)-6-(methylsulfonyl)-2H-1,4-benzoxazin-3(4H)-one] | ≤ 100 | ≤ 100 |  |
| COc1cc2c(c(-c3cn(C)c(=O)c4[nH]ncc34)c1)OC(C1CCCC1)C(=O)N2 (single isomer, unassigned) [Example 42A, 2-cyclopentyl-6-methoxy-8-(6-methyl-7-oxo-6,7-dihydro-1H-pyrazolo[3,4-c]pyridin-4-yl)-2H-1,4-benzoxazin-3(4H)-one] | ≤ 100 | ≤ 100 |  |
